Values quoted from earlier work as cited in PMC2803438 (Current Chemical Genomics, 2008).
pIC50, pKd: −log10 of the molar value.

Columns and labels:
[1] = system: Hsc70; details: read-out: IC50 for binding to Hsc70
[2] = target: Hsc70; details: read-out: Kd, binding to Hsc70; moderate affinity

pIC50 [1]	pKd [2]	Compound
5.55		NIVRKKK
	6.30	N=C(N)NCCCCCCC(=O)NC(O)C(=O)NCCCCNCCCN (centres unmarked) [15-deoxyspergualin]
